Measurements published in patent publication US20260007729A1, “IM[…] VIRAL […](S)” (IMMUNEO Therapeutics GmbH, priority 2022, published 2026).

What was measured:
[1] = tested on: PBMCs from a healthy adult human; assay: IFNγ ELISpot analysis of antigen peptides ex vivo; type: cell-based; conditions: for Activation*10 (IFNγ activity, activation values times 10): calculated by formula, neg 36.0; for Cells/100,000 cells (positive counts per 100,000 cells): cells pre-stimulated with peptide pool, 267,000 cells per well, duplicates; for Effectiveness of immunization (product of number of activated cells and activation): FIG. 11, descending order
[2] = tested on: T cell CD4 and CD8 activity; assay: Antigen response in mice, second trial (immunization, intracellular cytokine staining); type: in vivo, wild-type mice (C57BL/6); conditions: mice immunized with Pep2 C, restimulation with peptides (FIG. 9)
Protocol: 3 Groups of wild-type mice (C57BL/6) consisting of 5 mice (group 2,3) and 3 mice for the negative control (group 1) were administered different vaccine candidates (as following) for evaluation.
The Groups were administered the following compositions: • a) Group 1 (no vac.): no vaccine • b) Group 2 (Pep2 C): peptide mix (60 μg per single peptide, 12 peptides selected from SEQ ID NOs: 43, 44, 46, 47, 50-58) with c-di-AMP (10 mg/dose) adjuvant • c) Group 3 (mRNA): Comirnaty mRNA vaccine (5 μg/dose)
The antigen peptide formulations in accordance with the present invention were administered subcutaneous (SC) three times in two-week intervals (see FIG. 7), the mRNA vaccine was administered intramuscular (IM) two times in a four-week interval (Group 3). After five weeks the immune response was determined, T cell CD8 activity was examined by cytokines secreted in response to stimulation with the peptide antigens were determined by intracellular cytokine staining (ICS) with Intracellular cytokine staining with IFNγ and TNFγ. Specific antibodies.

[3] = tested on: peripheral blood mononuclear cells (PBMCs) from a human donor; assay: Intracellular Cytokine Staining (ICS) of antigen polypeptides; type: cell-based
Protocol: An Intracellular Cytokine Staining (ICS) assay to assess the T-cell responses induced by an antigen polypeptide in the spirit of the current invention was carried out following this experimental procedure. The experimental procedure involved several sequential steps to prepare and analyze freshly harvested peripheral blood mononuclear cells (PBMCs) from a human donor.
PBMCs were cultured in RPMI-1640 medium supplemented with 10% fetal bovine serum, penicillin-streptomycin, and L-glutamine at 37° C. with 5% CO2. After culture, the cells were divided into different experimental groups. The cells were then stimulated with the antigen peptide vaccine or a control peptide, along with appropriate cytokines and co-stimulatory molecules to facilitate T cell activation. The antigen peptide was designed to effectively stimulate both CD4 and CD8 T-cell responses.
To inhibit cytokine secretion and promote intracellular cytokine accumulation, brefeldin A was added to the stimulated cells at a concentration of 10 μg/mL, and the cells were incubated overnight. Subsequently, the cells were harvested, and staining was performed. Fluorescently labeled antibodies, including AlexaFluor 488-conjugated anti-IFNγ and APC-H7-conjugated anti-CD4, as well as Pacific Orange-conjugated anti-CD8 and a cell surface marker were added to the cells and incubated.
To facilitate antibody access to intracellular molecules, the cells were fixed and permeabilized using a fixation solution and permeabilization buffer. Intracellular cytokine staining was carried out by adding fluorescently labeled antibodies against IFNγ or other cytokines of interest. Following staining, flow cytometry analysis was performed by gating on CD4 and CD8 T cells to determine the percentage of cytokine-producing cells.
The obtained data were analyzed to compare the percentage of cytokine-producing CD4 and CD8 T cells stimulated with the antigen polypeptides to that of unstimulated CD4 and CD8 T cells or T cells stimulated with a control peptide. […]

Row | Sequence | Activation*10 (IFNγ activity, activation values times 10) [1] | Cells/100,000 cells (positive counts per 100,000 cells) ([1]; neg 25.8) | Effectiveness of immunization (product of number of activated cells and activation) [1] | other results
1 | RQGTDYKHWPQIAQF (synthetic peptide used as antigen comprising at least one HLA antigen peptide) [Pep-19] | 36.6 | 21.3 Cells/100,000 cells | – | –
2 | AISSVLNDILSRLDKVE [Pep-10] | 34.8 | 17.2 Cells/100,000 cells | – | –
3 | KDLSPRWYFYYLGTG [Pep-20] | 93.3 | 31.5 Cells/100,000 cells | – | –
4 | AATKMSECVLGQSKRVD [Pep-9] | 38.0 | 22.1 Cells/100,000 cells | – | –
5 | GKEDLKFPRGQGVPINTNSS [Pep-18] | 10.1 | 24.3 Cells/100,000 cells | – | –
6 | GDCLGDIAARDLIC [Pep-14] | – | 262.2 Cells/100,000 cells | most effective | Cells/100,000 cells (positive counts per 100,000 cells) ([1]; neg 25.8, listed as Peptide 14): especially high counts
7 | IRAAEIRASANLAATKM [Pep-21] | – | 50.9 Cells/100,000 cells | most effective | –
8 | LGKYEQYIKWPWYIWLGFIAG [Pep-15] | 36.5 | 16.9 Cells/100,000 cells | – | –
9 | DGYFKIYSKHTPINLV [Pep-17] | 99.6 | 249.1 Cells/100,000 cells | most effective | Cells/100,000 cells (positive counts per 100,000 cells) ([1]; neg 25.8, listed as Peptide 17): especially high counts
10 | TFEYVSQPFLMDLEGKQ [Pep-13] | 53.1 | 322.8 Cells/100,000 cells | most effective | Cells/100,000 cells (positive counts per 100,000 cells) ([1]; neg 25.8, listed as Peptide 13): especially high counts
11 | MAYRFNGIGVTQNVLYE [Pep-7] | – | 41.9 Cells/100,000 cells | most effective | Single peptide-specific CD8 T cell reaction [2]: caused a CD8 T cell reaction; CD8 / CD8+ response in ICS ([3]; FIG. 5, FIG. 9, groups of Table E7-1): strong CD8+ response; CD4 response in ICS ([3]; FIG. 8, groups of Table E7-1): some CD4 response; Individual activities in the ICS study ([3]; single peptides): high individual activities
